The values below are quoted from earlier work in publication PMC9804910 (Chembiochem, 2022).

The test system of this series is several cancer cell lines. Also noted: method as in PMID 32319768. Conditions: cited from earlier work.

With [Ru(DIP)2(sq)](PF6) [Compound 2], the cytotoxicity entry is “nanomolar concentration range”.
